Assay: xn = mol fraction of the nth substance listed
Conditions: 101 kPa, x1 = 1

CC1COC(=O)O1 (stereo unspecified) + CCCC[N+]1(C)CCCC1.O=S(=O)([N-]S(=O)(=O)C(F)(F)F)C(F)(F)F
Conditions | electrical conductivity [S/m] | viscosity [mPa·s]
263.15 K | 0.001 | –
268.15 K | 0.001 | –
273.15 K | 0.001 | –
278.15 K | 0.001 | –
283.15 K | 0.001 | –
288.15 K | 0.001 | –
298.15 K | 0.002 | 2.52
308.15 K | 0.002 | 2.14
318.15 K | – | 1.85
